Patent publication US20070167631A1, “Novel herbicides” (priority 2003, published 2007)

Assays:
Type in all cases: in vivo
[1] = system: Euphorbia; experiment: Post-emergence herbicidal action (Example B2); conditions: 250 g/ha, after about 18 days, rating scale 10=total damage, 0=no action
Excerpt: (§1) Monocotyledonous and dicotyledonous test plants are cultivated in a greenhouse in standard soil in plastic pots and, at the 4- to 6-leaf stage, are sprayed with an aqueous suspension of the test compounds of formula I prepared from a 25% wettable powder (Example F3, b) according to WO 97/34485) or with an emulsion of the test compounds of formula I prepared from a 25% emulsifiable concentrate (Example F1, c) according to WO 97/34485), corresponding to concentrations of 125 and 250 g of active ingredient per hectare (500 litres of water per ha). The test plants are then grown on in the greenhouse under optimum conditions. After a test duration of about 18 days, the test is evaluated in accordance with a scale of eleven ratings (10=total damage, 0=no action). Ratings of from 10 to 7 (especially from 10 to 8) indicate very good to good herbicidal action.

[2] = system: Stellaria; experiment: Post-emergence herbicidal action (Example B2); conditions: 250 g/ha, after about 18 days, rating scale 10=total damage, 0=no action
Excerpt: as §1

[3] = system: Chenopodium; experiment: Post-emergence herbicidal action (Example B2); conditions: 250 g/ha, after about 18 days, rating scale 10=total damage, 0=no action
Excerpt: as §1

[4] = system: Echinochloa; experiment: Post-emergence herbicidal action (Example B2); conditions: 250 g/ha, after about 18 days, rating scale 10=total damage, 0=no action
Excerpt: as §1

[5] = system: Panicum; experiment: Post-emergence herbicidal action (Example B2); conditions: 250 g/ha, after about 18 days, rating scale 10=total damage, 0=no action
Excerpt: as §1

[6] = system: Amaranthus; experiment: Post-emergence herbicidal action (Example B2); conditions: 250 g/ha, after about 18 days, rating scale 10=total damage, 0=no action
Excerpt: as §1

[7] = system: Xanthium; experiment: Post-emergence herbicidal action (Example B2); conditions: 250 g/ha, after about 18 days, rating scale 10=total damage, 0=no action
Excerpt: as §1

[8] = system: Scirpus; experiment: Pre-emergence herbicidal action (Example B1); conditions: 250 g/ha, after 4 weeks, rating scale 10=total damage, 0=no action
Method: (§2) Monocotyledonous and dicotyledonous test plants are sown in standard soil in pots or seed trays. Immediately after sowing, the test compounds, in the form of an aqueous suspension (prepared from a wettable powder (Example F3, b) according to WO 97/34485) or in the form of an emulsion (prepared from an emulsifiable concentrate (Example F1, c) according to WO 97/34485), are applied by spraying in a concentration of 250 g/ha. The test plants are then grown in a greenhouse under optimum conditions. After a test duration of 4 weeks, the test is evaluated in accordance with a scale of eleven ratings (10=total damage, 0=no action). Ratings of from 10 to 7 (especially from 10 to 8) indicate very good to good herbicidal action.

[9] = system: Echinochloa; experiment: Pre-emergence herbicidal action (Example B1); conditions: 250 g/ha, after 4 weeks, rating scale 10=total damage, 0=no action
Method: as §2

[10] = system: Panicum; experiment: Pre-emergence herbicidal action (Example B1); conditions: 250 g/ha, after 4 weeks, rating scale 10=total damage, 0=no action
Method: as §2

[11] = system: Digitaria; experiment: Pre-emergence herbicidal action (Example B1); conditions: 250 g/ha, after 4 weeks, rating scale 10=total damage, 0=no action
Method: as §2

[12] = system: Abutilon; experiment: Pre-emergence herbicidal action (Example B1); conditions: 250 g/ha, after 4 weeks, rating scale 10=total damage, 0=no action
Method: as §2

[13] = system: Amaranthus; experiment: Pre-emergence herbicidal action (Example B1); conditions: 250 g/ha, after 4 weeks, rating scale 10=total damage, 0=no action
Method: as §2

[14] = system: Chenopodium; experiment: Pre-emergence herbicidal action (Example B1); conditions: 250 g/ha, after 4 weeks, rating scale 10=total damage, 0=no action
Method: as §2

SMILES	Post-emergence action: Euphorbia [1]	Post-emergence action: Stellaria [2]	Post-emergence action: Chenopodium [3]	Post-emergence action: Echinochloa [4]	Post-emergence action: Panicum [5]	Post-emergence action: Amaranthus [6]	Post-emergence action: Xanthium [7]	Pre-emergence action: Scirpus [8]	Pre-emergence action: Echinochloa [9]	Pre-emergence action: Panicum [10]	Pre-emergence action: Digitaria [11]	Pre-emergence action: Abutilon [12]	Pre-emergence action: Amaranthus [13]	Pre-emergence action: Chenopodium [14]
Cc1nc(C(=O)C2=C(O)C(C)(C)C(=O)C(C)(C)C2=O)ccc1C(F)(F)F [Compound 2.203]	9	9	6	9	9	6	9	8	9	6	5	10	9	
CC1(C)C(=O)C(C(=O)c2ccc(C(F)(F)F)c(N3CCOCC3)n2)=C(O)C(C)(C)C1=O [Compound 2.073]	9	7	8	9	9	9	9	4	9	10	7	9	9	9
O=C1CCCC(O)=C1C(=O)c1ccc(C(F)(F)F)c(N2CCOCC2)n1 [Compound 1.073]	9	9	8	9	10	10	9		10	10	10	10	6	10
CN(C)c1nc(C(=O)C2=C(O)C(C)(C)C(=O)C(C)(C)C2=O)ccc1C(F)(F)F [Compound 2.059]	6	8	10	8	5	7	7		8	7	7	10	7	9
CC1CC(=O)C(C(=O)c2ccc(C(F)(F)F)c(N3CCOCC3)n2)=C(O)C1 (centres unmarked) [Compound 3.069]	5	7	10	7	8	8	8	5	10	10	10	10	10	6
CC1(C)CCC(O)=C(C(=O)c2ccc(C(F)(F)F)c(N3CCOCC3)n2)C1=O [Compound 3.072]	7	8	9	7	8	7	8	7	10	9	10	9	3	8
CC1(C)C(=O)C(C(=O)c2ccc(C(F)(F)F)c(C3(C)OCCO3)n2)=C(O)C(C)(C)C1=O [Compound 2.191]	8	10	7	8	9	3	8	3	10	10	7	10	7	9
